Legend:
Test in all cases: relative viability (nuclei count vs DMSO), 5 days (fraction); higher = more cells survive
[1] = compound: O=C(O)c1ccc2c(c1)nc(Nc1cccc(Cl)c1)c1ccncc12 [Silmitasertib] + O=C(CCCCCCC(=O)Nc1ccccc1)NO [Vorinostat] (partner 1 µM)
Outline: (§1)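 Relative viability divides the nuclei count in treated wells by that in vehicle wells. Lung cancer cell lines were seeded in 1536-well plates, dosed by pin tool the next day, and fixed and stained after 5 days in one step with final 0.05% Triton X-100, 1% formaldehyde and 1 ug/ml Hoechst. Dosing was a single drug or a fixed anchor-drug dose plus five library-drug doses (not always all listed) in √10 steps, and values are medians of duplicate plates imaged at 4×.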

[2] = compound: O=C(O)c1ccc2c(c1)nc(Nc1cccc(Cl)c1)c1ccncc12 [Silmitasertib] + C[C@]1(O)C[C@@H](c2nc(-c3ccc4ccc(-c5ccccc5)nc4c3)c3c(N)nccn32)C1 [Linsitinib] (partner 1 µM)
Outline: as §1

[3] = compound: O=C(O)c1ccc2c(c1)nc(Nc1cccc(Cl)c1)c1ccncc12 [Silmitasertib] + O=C(c1cc(Cc2n[nH]c(=O)c3ccccc23)ccc1F)N1CCN(C(=O)C2CC2)CC1 [Olaparib] (partner 8 µM)
Outline: as §1

[4] = compound: O=C(O)c1ccc2c(c1)nc(Nc1cccc(Cl)c1)c1ccncc12 [Silmitasertib] + Cc1cc(Nc2cc(N3CCN(C)CC3)nc(Sc3ccc(NC(=O)C4CC4)cc3)n2)n[nH]1 [Tozasertib] (partner 0.1 µM)
Outline: as §1

[5] = compound: O=C(O)c1ccc2c(c1)nc(Nc1cccc(Cl)c1)c1ccncc12 [Silmitasertib] + Cc1nc(Nc2ncc(C(=O)Nc3c(C)cccc3Cl)s2)cc(N2CCN(CCO)CC2)n1 [Dasatinib] (partner 0.075 µM)
Outline: as §1

Row | Cell Line | relative viability ([1]; first compound 0.04 µM) | relative viability ([1]; first compound 0.4 µM) | relative viability ([1]; first compound 1.265 µM) | relative viability ([1]; first compound 4 µM) | relative viability ([2]; first compound 0.04 µM) | relative viability ([2]; first compound 0.4 µM) | relative viability ([2]; first compound 1.265 µM) | relative viability ([2]; first compound 4 µM) | relative viability ([3]; first compound 0.04 µM) | relative viability ([3]; first compound 0.4 µM) | relative viability ([3]; first compound 1.265 µM) | relative viability ([3]; first compound 4 µM) | relative viability ([4]; first compound 0.04 µM) | relative viability ([4]; first compound 0.4 µM) | relative viability ([4]; first compound 1.265 µM) | relative viability ([4]; first compound 4 µM) | relative viability ([5]; first compound 0.04 µM) | relative viability ([5]; first compound 0.4 µM) | relative viability ([5]; first compound 1.265 µM) | relative viability ([5]; first compound 4 µM)
1 | HCC-44 | 1.06 | 0.903 | 1.24 | 1.16 | 0.7 | 0.673 | 0.665 | 0.691 | 0.972 | 0.822 | 1.06 | 1.02 | 1.13 | 0.853 | 0.802 | 0.691 | – | – | – | –
2 | HCC-78 | 0.459 | 0.421 | 0.402 | 0.437 | 0.723 | 0.469 | 0.375 | 0.481 | 0.92 | 0.42 | 0.509 | 0.734 | 0.446 | 0.315 | 0.384 | 0.492 | 0.51 | 0.286 | 0.309 | 0.323
3 | HCC-366 | 0.396 | 0.221 | 0.413 | 0.0566 | 0.869 | – | 0.366 | 0.379 | 0.396 | 0.213 | 0.373 | 0.387 | 0.107 | 0.0962 | 0.0628 | 0.0717 | 0.57 | 0.48 | 0.525 | 0.379
4 | HCC-827 | 0.861 | – | 0.241 | 0.555 | 0.967 | – | 1.18 | 1.18 | 0.659 | – | 0.705 | 0.735 | 0.454 | – | 0.398 | 0.471 | 0.342 | – | 0.259 | 0.274
5 | HOP-62 | 0.779 | – | 0.584 | 0.388 | 0.973 | – | 0.998 | 0.703 | 0.427 | – | 0.378 | 0.338 | 0.4 | – | 0.341 | 0.296 | 0.683 | – | 0.639 | 0.567
6 | LC-2-ad | 0.712 | 0.573 | 0.753 | 0.3 | 0.731 | 0.881 | 0.836 | 0.918 | 0.712 | 0.522 | 0.754 | 0.663 | 0.537 | 0.411 | 0.388 | 0.374 | 0.915 | 0.482 | 0.384 | 0.276
7 | LCLC-97TM1 | 0.605 | – | 0.654 | 0.119 | 0.178 | – | 0.172 | 0.14 | 0.382 | – | 0.213 | 0.234 | 0.247 | – | 0.168 | 0.162 | 0.976 | – | 0.916 | 0.767
8 | LCLC-103H | 0.823 | 0.693 | 0.774 | 0.428 | 1.09 | 1.19 | 1.04 | 0.796 | 0.817 | 0.719 | 0.641 | 0.664 | 0.522 | 0.341 | 0.356 | 0.289 | 0.449 | 0.414 | 0.419 | 0.279
9 | LK-2 | 0.296 | – | 0.404 | 0.18 | 0.557 | 0.474 | 0.365 | 0.451 | 0.798 | 0.283 | 0.663 | 0.346 | 0.165 | – | 0.169 | 0.19 | 0.328 | – | 0.309 | 0.321
10 | LOU-NH91 | 1.06 | 0.874 | 0.784 | 0.514 | 1.11 | 0.859 | 0.796 | 0.754 | 0.941 | 0.839 | 0.8 | 0.814 | 0.689 | 0.539 | 0.441 | 0.484 | 0.585 | 0.475 | 0.46 | 0.383
11 | NCI-H522 | 0.99 | 0.715 | 0.929 | 0.863 | – | – | – | – | 0.633 | 0.58 | 0.774 | 0.592 | 0.611 | 0.464 | 0.541 | 0.574 | 0.876 | 0.785 | 0.788 | 0.849
12 | NCI-H1650 | 0.577 | 0.386 | 0.421 | 0.288 | – | – | – | – | 0.833 | 0.798 | 0.646 | 0.493 | 0.466 | 0.517 | 0.272 | 0.235 | 0.358 | 0.35 | 0.248 | 0.242
13 | NCI-H1703 | – | – | – | – | 1.04 | 0.654 | 1.23 | 0.419 | 0.513 | 0.368 | 0.541 | 0.573 | – | – | – | – | – | – | – | –
14 | NCI-H1792 | – | – | – | – | 0.531 | 0.439 | 0.48 | 0.539 | 0.308 | 0.421 | 0.431 | 0.281 | – | – | – | – | 0.869 | 0.806 | 0.824 | 0.921
15 | NCI-H2170 | 0.81 | 0.503 | 0.73 | 0.683 | – | – | – | – | 0.56 | 0.299 | 0.529 | 0.574 | 0.673 | 0.478 | 0.713 | 0.65 | 0.61 | 0.502 | 0.676 | 0.598
16 | NCI-H2342 | 0.782 | – | 0.746 | 0.727 | – | – | – | – | 0.422 | – | 0.434 | 0.426 | 0.479 | 0.479 | 0.374 | 0.445 | 0.33 | 0.295 | 0.271 | 0.298
